Tests used:
[1] = tested on: Li-Larven von Lucilia sericata; assay: Activity against L1 larvae of Lucilia sericata (mortality in larval culture medium); conditions: 100 ppm active substance in larval medium; about 30 L1 larvae; mortality after 4 days
Description: 1 ml einer wässrigen Suspension der zu prüfenden Aktivsubstanz werden so mit 3 ml eines speziellen Larvenzuchtmediums bei ca. 50° C vermischt, dass ein Homogenisat von wahlweise 250 ppm oder 100 ppm Wirkstoffgehalt entsteht. In jede Reagenzglas-Probe werden ca. 30 Lucilia-Larven (L1) eingesetzt. Nach 4 Taben wird die Mortalitätsrate bestimmt. Verbindungen der Formel I aus den Tabellen, wie z.B. die Verbindungen H4 und H5 erzielten mit 100 ppm eine Wirkung von 100%.

[2] = tested on: Haemonchus contortus und Trichostrongylus colubriformis; assay: Test on sheep infected with nematodes (worm egg count in faeces); format: in vivo, Schaf; conditions: single dose 0,2 mg/kg by stomach tube or intraruminal injection, compared with untreated infected controls
Description: Der Wirkstoff wird als Suspension formuliert mit einer Magensonde oder durch Injektion in den Pansen eines Schafes gegeben, das mit Haemonchus contortus und Trychostrongylus colubriformis künstlich infiziert worden ist. Pro Dosis werden 1 bis 3 Tiere verwendet. Jedes Schaf wird nur einmal mit einer einzigen Dosis behandelt, und zwar wahlweise mit 0,5 mg oder 0,2 mg/kg Körpergewicht. Die Evaluierung erfolgt durch Vergleich der Anzahl der vor und nach Behandlung im Kot der Schafe ausgeschiedenen Wurmeier. Gleichzeitig und gleichartig infizierte aber unbehandelte Schafe dienen als Kontrolle.

Dermanyssus gallinae = assay: Miticidal activity against Dermanyssus gallinae; conditions: 100 ppm test solution; about 200 mites; observed for three days
Description: 2 bis 3 ml einer Testlösung (100, 10, 1 und 0,1 ppm Aktivsubstanz) werden in einen nach oben offenen Glasbehälter gegeben und ca. 200 Milben in unterschiedlichen Entwicklungsstadien in diesen Behälter eingesetzt. Der Glasbehälter wird mit einem Wattebausch verschlossen und 10 Minuten gleichmässig, bis zur vollständigen Benetzung der Milben geschüttelt. Danach wird der Behälter umgekehrt hingestellt, bis die überschüssige Testlösung von der Watte aufgesogen ist. Der Behälter wird erneut gekehrt und die behandelten Milben zur Evaluierung der Wirksamkeit der Testsubstanzen drei Tage unter Laborbedingungen beobachtet, wobei die Mortalität als Massstab für Wirksamkeit herangezogen wird. Verbindungen aus den Tabellen, wie z.B. die Verbindungen H4 und H5 zeigen bei 100 ppm eine Wirkung von 1000/0.

Substance | Wirkung (Mortalitätsrate) [1] [%] | Nematodenbefall (Reduktion der Wurmeier im Kot) [2] | Wirkung (Mortalität) (Dermanyssus gallinae)
13ß-Vinyl-milbemycin A4 [H5] | 100 | keinen Nematodenbefall | 1000/0
13-Vinyl-milbemycin A4 [H4] | 100 | keinen Nematodenbefall | 1000/0
